Results from patent publication US20090162495A1, “Derivatives of Di-Carbonyl Aromachemicals” (FLEXITRAL INC, priority 2005, published 2009).

Columns and labels:
[1] = vapor pressure of the adduct; format: physicochemical; conditions: resulting in little or no odor
Description: (§1) Diacetyl is known to form an adduct with sodium hydrogen sulfite [2-butanesulfonic acid, 2-hydroxy-3-oxo-, monosodium salt—CAS 13489-36-6]. See also French patent 2,845,903. This adduct is in equilibrium with the starting materials and, in practice, releases small amounts of diacetyl and sulfite continuously. The above-mentioned French patent discloses that the adduct is useful in hair care products as a straightening agent. The vapor pressure of the diacetyl adduct is negligible, thereby resulting in little or no odor. It is usually obtained and used in the form of a water-soluble salt, such as, e.g., an alkali metal (sodium) salt. Since it is water soluble, it can therefore be sprayed directly onto foodstuffs safely. The flavor imparted by the adduct is dominated by diacetyl, since at low concentrations, the sulfite taste and flavor is imperceptible.

[2] = water solubility of the adduct; format: physicochemical; conditions: water-soluble salt, e.g. alkali metal (sodium) salt
Description: as §1

Question: Which results are given for `CC(=O)C(C)(O)S(=O)(=O)[O-].[Na+]` (centres unmarked) [diacetyl adduct, 2-butanesulfonic acid, 2-hydroxy-3-oxo-, monosodium salt]?
Answer: vapor pressure [1]: negligible; water solubility [2]: water soluble
